The values below come from PubChem BioAssay AID1508591.

Molecules are shown by their SMILES.

The conditions of the series: rat; liver microsomes; pH 7.4; 15.0 min; 1.0 µM.
Usually half-life stands for how long it takes for the measured level to halve. The compound `CCOc1ccc(CCNC(=O)c2cc3sccc3n2C)cc1OCC` registered a half-life of 1.6 min. Next, `CN1CCCC(CC2c3ccccc3Sc3ccccc32)C1` (stereo unspecified): 1.4 min.

Take `Cc1cc(C)nc(NC(=S)N2CCN(c3ccc(C(F)(F)F)cc3Cl)CC2)c1`: the half-life is above 30 min. As for `Nc1ccc(CNc2ccc([S+](=O)([O-])Nc3nccs3)cc2)c(O)c1`, the figure is above 30 min; as for `Cc1cccc(C)c1Nc1c(-c2ccccn2)nc2ccc(Cl)cn12`, 1.86 min; as for `Cc1ccccc1C(C(=O)NC1CCCC1)N(C(=O)Cn1cnc2ccccc21)c1cccc(F)c1` (stereo unspecified), 1.67 min. Consider `CC[C@H]1CN(C)[C@H]2Cc3c([nH]c4ccccc34)C(=O)C[C@H]1[C@H]2C(=O)OC`, for which the half-life turned out to be 11.3 min. In turn, `Cc1cccc([C@H]2[C@@H]3C=CC[C@@H](C)[C@@H]3C(=O)N2Cc2ccccc2)c1` showed a half-life of 1.4 min.

As to `CC(C)(C)C1CCc2[nH]c3ccccc3c(=O)c2C1` (stereo unspecified), the half-life came out at 18.7 min.

As for `COc1ccc(-n2nc(C3CCN([S+](=O)([O-])c4c(C)noc4C)CC3)[nH]c2=O)cc1`, the half-life amounted to 22.9 min.

In turn, `CC[C@@](C)(Nc1ccnc(-c2c[nH]c3ncccc23)n1)C(=O)NCC(F)(F)F` showed a half-life of 27.8 min. The half-life values of the last two compounds are within 1.5-fold of each other. Take `CN(C)CC(=O)NC1CCCc2c1cnn2-c1ccc(F)cc1F` (stereo unspecified): the half-life was above 30 min. Compound `Cc1ccc(S(=O)(=O)Nc2cc(Cl)ccc2C(=O)Nc2nc(-c3ccccc3)cs2)cc1` yielded a half-life of 7.65 min.

The compound `O=C1NCc2ccc(-c3cc4c(ccn4Cc4cccnc4)c(C4=CCOCC4)n3)cc21` showed a half-life of 19.5 min. This half-life lies about 2.5-fold higher than the previous one. Compound `O=C(Cc1ccc(Cl)c(Cl)c1)Nc1ccc(S(=O)(=O)Nc2cncnc2)cc1` registered a half-life above 30 min.

Consider `COc1ncccc1-c1cc2c(ccn2C(C)C)c(C(=O)NCc2c(C)cc(C)[nH]c2=O)n1`, for which the half-life was 5.49 min. As for `CSc1ccc(C(=O)c2[nH]c(=O)[nH]c2C)cc1`, the figure is above 30 min.

As to `Cc1cccc(-n2cnc3cc(C(=O)N4CCCC(C)(C)C4)ccc32)c1`, the half-life amounted to 1.6 min. `O=C(Nc1ccc2oc(-c3ccncc3)nc2c1)c1ccccc1Cl` registered a half-life above 30 min. Next, `COc1cccc(S(=O)(=O)Nc2cnccc2C(=O)Nc2nc(-c3ccccc3)cs2)c1`: 6.7 min. As for `O=C1CCCC2=C1C(c1[nH]ncc1Cl)N=C(Nc1nc3ccc(F)cc3o1)N2` (stereo unspecified), the figure is 14 min; as for `COc1ccc(-c2ccc3ncc(Nc4ccc(C(N)=O)cc4)n3n2)cc1OC`, above 30 min.

Take `COc1ccc(-n2nc(C3CCN(C(=O)Cc4ccc(F)cc4)CC3)[nH]c2=O)cc1`: the half-life was found to be 7.87 min.

`O=C(O)c1c(Sc2ccccc2)c2cc(Cl)ccc2n1Cc1ccc(Cl)cc1` displayed a half-life of 26.6 min. Consider `O=C(NC(c1ccccc1)c1cc(Cl)c2cccnc2c1O)c1cccnc1` (stereo unspecified), for which the half-life was found to be 18.6 min. Next, `O=C(Nc1ccccc1)C1CCN(c2nc(-c3ccc(Br)cc3)cs2)CC1`: 1.53 min; `Cc1cc(C)cc(NS(=O)(=O)c2ccc3[nH]cc(C(=O)NCc4ccco4)c(=O)c3c2)c1`: 1.84 min; `Cc1cc(C)nc(NC(=S)N2CCN(c3ccc4nsnc4c3)CC2)c1`: 15.2 min.

Consider `CC1CCN(C(=O)c2ccc(-c3ccc(N4CCSCC4)nc3)cc2)CC1`, for which the half-life was 1.52 min. Against the preceding compound, the half-life is about 10-fold lower. Compound `O=[S+]([O-])(Nc1nccs1)c1ccc(NCc2cccc3c2NCC3)cc1` yielded a half-life above 30 min. On to `CC(=O)C1CCN(c2ncc(-c3cccc(N(C)C)c3)s2)CC1`, for which the half-life is 2.51 min. For the compound `NC(=O)C1CCN(c2nccc(-c3ccc(Br)cc3)n2)CC1`, the half-life turned out to be 19.3 min. This half-life is about 7.7-fold higher than that of the compound before. As for `O=c1cc(-c2nc(Nc3ccc(F)c(F)c3)c3ccccc3n2)cc[nH]1`, the figure is above 30 min; as for `O=C1CN(C(=O)CCC(=O)N2CCc3c(nc4cc(-c5ccccc5)[nH]n4c3=O)C2)c2ccccc2N1`, above 30 min. `O=c1cc(CN2CCCN(c3ccc(C(F)(F)F)cn3)CC2)nc2ccccn12` had a half-life of 8.7 min. Next, `Cc1cc(C(=O)Nc2nnc(C3CCCCC3)s2)cs1`: 7.1 min; `COCCNC(=O)[C@H]1C[C@H](Oc2ccccc2)CN1Cc1ccc2[nH]ccc2c1`: 0.97 min; `Cc1ccc(S(=O)(=O)Nc2cnccc2C(=O)Nc2ccc(S(=O)(=O)Nc3nccs3)cc2)cc1`: 5.3 min. Compound `CCn1cc(C(=O)N2CCN(c3cccc(Cl)c3)CC2)c2cc(OC)c(OC)cc2c1=O` came in with a half-life of 7.12 min. Compound `COc1cccc(CNc2ccc(S(=O)(=O)Nc3nccs3)cc2)c1` showed a half-life of 15 min. This half-life is about 2.1-fold higher than that of the compound before. For the compound `O=C(NCc1cccs1)c1cn2cc(-c3ccccc3)sc2n1`, the half-life worked out at 12.7 min. Next, `Nc1scc2c(C(=O)O)nn(-c3ccccc3)c(=O)c12`: above 30 min; `COCCn1ccc2c(C3=CCOCC3)nc(-c3ccc4c(c3)CNC4=O)cc21`: 9.18 min; `CN(C)c1cccc(-c2ccnc(N3CCC(C(N)=O)CC3)n2)c1`: 1.67 min. Regarding `Cc1nc(N2CCN(c3ccccn3)CC2)c2c(C)c(C(=O)Nc3ccc(F)cc3Cl)sc2n1`, the half-life is 10.2 min. As for `C[C@@]1(C(=O)Nc2ccc(F)nc2)CCCN1c1nc(Nc2cc(C3CC3)[nH]n2)c2cccn2n1`, the figure is 8.35 min. Compound `O=C1c2ccccc2C2=Nc3ccccc3SC(c3ccc(Cl)cc3)C12` (stereo unspecified) came in with a half-life of 2.96 min. Compared with the last compound, the half-life is about 2.8-fold lower. Next, `COc1ccc(Cn2c(C(=O)O)c(CNCc3ccco3)c3ccc(C)cc32)cc1`: above 30 min; `CC(=O)Nc1ccc(C(=O)Nc2ccccc2N)cc1`: above 30 min; `COc1ccc(-c2nc3c(c(SCC(=O)Nc4ccc(C(=O)O)cc4)n2)Cc2ccccc2O3)cc1`: above 30 min. As for `Cc1noc(C)c1S(=O)(=O)Nc1cnccc1C(=O)Nc1nc(-c2ccccc2)cs1`, the half-life was above 30 min. As for `NC(=O)C1CCN(c2nc(-c3ccc(C(F)(F)F)cc3)cs2)CC1`, the figure is 5.39 min. `Cc1c(C(=O)OCCOc2ccccc2)[nH]c2c1C(=O)CC(c1ccccc1)C2` (stereo unspecified) showed a half-life of 5.25 min.

`Cc1ccc(-n2nc(C)c3c(-c4ccc(O)c(O)c4)c(C#N)c(N)nc32)cc1C` returned a half-life of 15 min. `CN(C(=O)CNC(=O)c1ccccc1OCC(=O)Nc1ccc(I)cc1)c1ccccc1` registered a half-life of 1.44 min. As for `CC(C)CC(C)NC(=O)c1noc(-c2ccc[nH]c2=O)n1` (stereo unspecified), the figure is above 30 min; as for `COc1ccc(-c2nc(Nc3ccc(F)c(F)c3)c3ccccc3n2)cc1`, above 30 min; as for `O=C1CCCC2=C1C1(CCS(=O)(=O)C1)N=C(Nc1nc3ccccc3o1)N2` (stereo unspecified), 17 min. Next, `CC(C)c1ccccc1-c1ncc(F)c(NCc2ccc(-c3cccnc3)s2)n1`: 2.8 min; `CCOC(=O)c1[nH]c(C)c(CCC(=O)N2CCN(c3cc(C)ccc3C)CC2)c1C`: 2.27 min. As for `O=C(Nc1ccc2c(N3CCOCC3)ncnc2c1)c1cccc(Br)c1`, the half-life turned out to be 10.1 min. `Cc1cc(-c2nnc3n2CCCCC3)c(C)n1-c1cccc(C#N)c1` came in with a half-life of 8.1 min. With `Cc1cc(C)c(C(=O)Nc2cccc([S+](=O)([O-])N3CCCCCC3)c2)[nH]1`, the half-life is 1.7 min. Compound `CC(O)(C#Cc1ccc2c(c1)N(c1nc(N)ncc1Cl)CC2)c1nccs1` (stereo unspecified) showed a half-life of 7.75 min.

The compound `CN([C@@H](Cc1ccc(O[S+](=O)([O-])c2cccc3cnccc23)cc1)C(=O)N1CCN(C(=O)OCc2ccccc2)CC1)[S+](=O)([O-])c1cccc2cnccc12` returned a half-life of 2.7 min.

As to `Fc1cc(Nc2nc(-c3ccncc3)nc3ccccc23)ccc1-c1cc(F)c(F)c(F)c1`, the half-life was above 30 min. In the case of `Cc1ccccc1C(=O)NC1CCN(c2ccc3nnc(C4CC4)n3n2)CC1`, the half-life was above 30 min. `CCn1cc(C(=O)O)c(=O)c2cnc(N3CCN(C(=S)Nc4ccccc4)CC3)nc21` yielded a half-life above 30 min.

Compound `Cc1ccc(-c2cc(C(=O)Nc3ccc(S(N)(=O)=O)cc3)c3ccccc3n2)cc1C` had a half-life above 30 min. As for `CSc1ccc(/C=C/c2nc3ccccc3n2S(=O)(=O)c2ccc(Br)cc2)cc1`, the figure is 6.3 min. `CCn1c(C)c(C(C)=O)c(C)c1C(=O)Nc1cccc([S+](=O)([O-])N(C)C)c1` displayed a half-life of 6.5 min. In turn, `Cc1ccc(C(=O)Nc2nc(-c3ccccn3)cs2)cc1S(=O)(=O)N1CCOCC1` gave a half-life of 4.16 min. This half-life lies about 1.6-fold lower than the previous one. Compound `CCCc1nnc(NC(=O)c2nc(S(=O)(=O)Cc3ccc(C)cc3)ncc2Cl)s1` gave a half-life of 5.28 min. Next, `CCc1ccc(-n2c(=O)c3cccnc3n2CC(=O)Nc2cc(OC)ccc2OC)cc1`: 1 min; `COc1ccc(S(=O)(=O)N(C(=O)C(C)C)c2ccc3oc(=O)sc3c2)cc1`: 2.2 min. As for `COc1cccc(CN2CCNc3cc(Nc4ccccc4)ncc3C2)c1`, the figure is 1.58 min. Take `CCOc1ccc(NC(=O)c2nc(S(=O)(=O)Cc3ccccc3F)ncc2Cl)cc1`: the half-life was 1.43 min. As for `CCOC(=O)c1nn(-c2ccccc2)c(=O)c2c(N)scc12`, the figure is 2.12 min; as for `COc1ccc(C(=O)N[C@@H]2CCC[C@@H]2C(=O)N2CCC(Cc3ccccc3)CC2)cc1`, 2.66 min; as for `O=C(Nc1ncc(Cc2ccc(C(F)(F)F)cc2)s1)c1cnc(-c2ccccc2)s1`, above 30 min.

`CC(C)CCNC(=O)[C@H](CC(C)C)NC(=O)[C@H]1O[C@@H]1C(=O)O` displayed a half-life above 30 min.

With `c1ccc(Nc2cc3c(cn2)CN(Cc2ccc4[nH]ccc4c2)CCN3)cc1`, the half-life came out at 2.09 min. Next, `Cc1ccc(NC(=O)C(Cc2ccccc2)NS(=O)(=O)c2cccs2)cc1Cl` (stereo unspecified): 1.12 min; `O=C(CNC12CC3CC(CC(C3)C1)C2)c1ccc(Cl)cc1`: 2.2 min. As for `O=C1Nc2ccccc2/C1=C/c1ccnc2ccccc12`, the figure is 4.5 min; as for `Cc1ccc(NC2=C(c3ccc(C(F)(F)F)cc3)C(=O)c3ccccc32)cc1F`, 8.96 min. As for `O=c1[nH]c(C2CCN(CC3CCCCC3)CC2)nn1Cc1ccccc1`, the figure is 25.3 min.

Turning to `NC(=O)C1CCN(c2nc(-c3cccc([N+](=O)[O-])c3)cs2)CC1`, the half-life turned out to be 2.3 min. This half-life lies about 11-fold lower than the previous one. `Cc1ccccc1C(=O)Nc1nc2c(s1)CC(C(C)(C)C)CC2` (stereo unspecified) gave a half-life of 10.5 min. As for `Oc1cccc(-c2nc(N3CCOCC3)c3oc4ncccc4c3n2)c1`, the half-life was determined as 21.8 min. As for `COC(=O)c1c(NC(=O)Cc2coc3cc(C)ccc23)sc2c1CCC2`, the figure is 2.31 min.
